This passage reports IC50 results from patent US9789195B2, “Particulate drug delivery methods” (priority 2007, dated 2017).

In the assay the test system is PC-3 cells. Nature of the assay: MTT assay in PC-3 cells, 24 hr incubation. Format: cell-based. The note with it: Homo sapiens, NCs of similar sizes (~100 nm). The procedure: Characterization and Evaluation of Ptxl-PLA NC: NC sizes were characterized by a ZetaPALS dynamic light scattering detector (Brookhaven Instruments, Holtsville, N.Y., USA) or by SEM. The resulting NCs were purified by ultrafiltration; their in vitro toxicities were then evaluated using MTT assay in PC-3 cells (24 hr incubation at 37 C). To determine the release kinetics of Ptxl-PLA, a PBS solution of NCs was equally divided into several portions and then incubated at 37 C. At scheduled time, the release study was terminated. DMF solution was added to dissolve all precipitation. All the samples were then dried, re-dissolved in DCM and reacted with Bu4NBH4 for 1.5 hours. A drop of acetic acid was added into the solution. The solution was stirred for 20 min before the solvent was evaporated. The residual solid was reconstituted in acetonitrile for RP HPLC analysis (Curosil, 250×4.6 mm, 5μ; Phenomenex, Torrence, Calif., USA).
PC-3 cells were plated in a 96-well plate for 24 h (10,000 cells per well). On the day of experiments, cells were washed with prewarmed PBS and different concentration of fresh prepared NCs (prepared in 1×PBS) was added. The control cells were incubated with medium. […] The resulting crystals were dissolved and final cell viability was assessed colorimetrically by microplate reader at 655 nm. […]

Structures are written as SMILES.

With `CC(=O)O[C@H]1C(=O)[C@@]2(C)[C@H]([C@H](OC(=O)c3ccccc3)[C@]3(O)C[C@H](OC(=O)[C@H](O)[C@@H](NC(=O)c4ccccc4)c4ccccc4)C(C)=C1C3(C)C)[C@]1(OC(C)=O)CO[C@@H]1C[C@@H]2O` [Ptxl, paclitaxel], the IC50 (commonly the midpoint of a concentration-inhibition curve) was found to be 87 nM.
